Read-outs that look alike come from different tables or passages of the source.
How the values were obtained:
Velvetleaf = assay: Weed and crop Petri dish bioassay, radicle length; type: in vivo, Abutilon theophrasti Medicus
Experimental: (§1) m-Tyrosine activity was bioassayed using selected weed and crop species. Growth inhibition as measured by radicle elongation was evaluated in dandelion (Taraxacum officinale Weber in […].), large crabgrass (Digitaria sanguinalis (L.) Scop.), velvetleaf (Abutilon theophrasti Medicus), black medic (Medicago lupulina L.), curly cress (Lepidium sativum L.), bamyardgrass (Echinochloa crus-galli.(L.) Beauv.), lettuce (Lactuca sativa L.), purslane (Portulaca oleracea L.), annual bluegrass (Poa annua L.), birdsfoot trefoil (Lotus corniculatus L.), broadleaf plantain (Plantago major L.), mouseear chickweed (Cerastium vulgatum L.), common chickweed (Stellaria media (L.) Vill.), white clover (Trifolium repens L.), wheat (Triticum aestivum L.), tomato (Lycopersicon esculentum var. esculentum P. Mill.), tobacco (Nicotiana tobacum L.), and sorghum sudangrass hybrid (Sorghum bicolor x Sudanese). Weeds were purchased from HerbiSeeds, England, tomato seeds were purchased from Agway (Ithaca N.Y.), and wheat, sudex and tobacco where donated by Pioneer Seeds (Johnson, Iowa). Seeds were sterilized by a water: ethanol mixture (1:1) for one minute and rinsed three times thoroughly in distilled water. […] At the end of the incubation period, radicle length was measured. […]

Mouseear chickweed = assay: Weed and crop Petri dish bioassay, radicle length; type: in vivo, Cerastium vulgatum L.
Experimental: m-Tyrosine activity was bioassayed using selected weed and crop species. Growth inhibition as measured by radicle elongation was evaluated in dandelion (Taraxacum officinale Weber in […].), large crabgrass (Digitaria sanguinalis (L.) Scop.), velvetleaf (Abutilon theophrasti Medicus), black medic (Medicago lupulina L.), curly cress (Lepidium sativum L.), bamyardgrass (Echinochloa crus-galli.(L.) Beauv.), lettuce (Lactuca sativa L.), purslane (Portulaca oleracea L.), annual bluegrass (Poa annua L.), birdsfoot trefoil (Lotus corniculatus L.), broadleaf plantain (Plantago major L.), mouseear chickweed (Cerastium vulgatum L.), common chickweed (Stellaria media (L.) Vill.), white clover (Trifolium repens L.), wheat (Triticum aestivum L.), tomato (Lycopersicon esculentum var. esculentum P. Mill.), tobacco (Nicotiana tobacum L.), and sorghum sudangrass hybrid (Sorghum bicolor x Sudanese). Weeds were purchased from HerbiSeeds, England, tomato seeds were purchased from Agway (Ithaca N.Y.), and wheat, sudex and tobacco where donated by Pioneer Seeds (Johnson, Iowa). Seeds were sterilized by a water: ethanol mixture (1:1) for one minute and rinsed three times thoroughly in distilled water. The simple phytotoxicity bioassay utilized consisted of the evaluation of radicle length of ten sterilized seeds of each weed/crop deposited on a filter paper containing the appropriate m-tyrosine test solution in 4.5 cm Petri dishes. […] A 1000 μL aliquot of the appropriate test solution was added to individual Petri dishes lined with Whatman No. 1 filter paper. Control dishes received 1000 μL of water. After seeds were placed on moistened filter paper, Petri dishes were transferred to a controlled environment with a light regime of 45,33 photon m^-2 s^-1 and maintained at an average temperature of 25° C. for 7 days. At the end of the incubation period, radicle length was measured. Treatments were replicated three times, and the experiment for each plant species tested was repeated three times.

Arabidopsis = assay: Weed and crop Petri dish bioassay, radicle length; type: in vivo, Arabidopsis thaliana L.
Birdsfoot trefoil = assay: Weed and crop Petri dish bioassay, radicle length; type: in vivo, Lotus corniculatus L.
Experimental: as §1

[1] = test system: lettuce seedlings (Lactuca sativa L.); assay: Petri-dish bioassay, radicle elongation in lettuce seedlings; type: in vivo; conditions: for IC50: Lactuca sativa
Black Medic = assay: Weed and crop Petri dish bioassay, radicle length; type: in vivo, Medicago lupulina L.
Experimental: as §1

## N[C@@H](Cc1cccc(O)c1)C(=O)O [m-tyrosine, 3-hydroxyphenylalanine]
Velvetleaf
  I10: 40 µM
Velvetleaf; Abutilon theophrasti, read-out: I50
  IC50: 168 µM
Mouseear chickweed
  I10: 6 µM
  I100: 47 µM
Mouseear chickweed; Cerastium, read-out: I50
  IC50: 9 µM
Arabidopsis
  I10: 6 µM
  I100: 50 µM
Arabidopsis; Arabidopsis thaliana, read-out: I50
  IC50: 15 µM
Birdsfoot trefoil
  I10: 20 µM
Birdsfoot trefoil; Lotus corniculatus, read-out: I50
  IC50: 42 µM
[1]; 20 μM loaded on filter paper
  reduction of root elongation of lettuce seedlings: 64%
[1]; lettuce seedlings at 72 h, read-out: concentration for 50% reduction of root growth
  IC50: 17 µM
[1]; soil-less assay, read-out: I50, 50% inhibition of root growth of lettuce
  IC50: ~8 µM
[1]; solutions added to pre-germinated seeds
  root elongation of pre-germinated lettuce seeds: strongly inhibited
Black Medic
  I10: 40 µM
Black Medic; Medicago lupulina, read-out: I50
  IC50: 84 µM

Source: patent US8461085B2, “Bioherbicide from Festuca spp” (Cornell Research Foundation, Inc., priority 2005, dated 2013)
